Laboratory results as given in patent US9181218B2, “Compounds for improved stem cell differentiation into hepatocytes” (Hoffmann-La Roche Inc., priority 2013, dated 2015).

Tested on: interferon-stimulated genes (ISGs)
Experiment: Microarray analysis of iCell Hepatocytes treated with the compound of example 1
Format: cell-based, Human
Text: iCell Hepatocytes treated with the compound of example 1 results in the up and down-regulation of a host of genes; including a kinetic effect on interferon-stimulated gene (ISGs) expression. See FIGS. 15-I and 15-II, 16-I and 16-II and 18 and Table 1.

SMILES: O=C(NCc1cccc(F)c1)c1cccc2nc(-c3c(NC[C@@H](O)c4ccccc4)cc[nH]c3=O)[nH]c12 [Example 1, 2-[4-((S)-2-hydroxy-2-phenyl-ethylamino)-2-oxo-1,2-dihydro-pyridin-3-yl]-3H-benzoimidazole-4-carboxylic acid 3-fluoro-benzylamide]
- ADAM19 Raw Est Fold Change (2 HOUR): 2.77
- AES Raw Est Fold Change (2 HOUR): 2.07
- AKT3 Raw Est Fold Change (2 HOUR): −1.76
- ASNS Raw Est Fold Change (2 HOUR): 1.80
- BCL3 Raw Est Fold Change (2 HOUR): −1.44
- BUB1 Raw Est Fold Change (2 HOUR): −20.72
- C10orf10 Raw Est Fold Change (2 HOUR): −3.72
- CD80 Raw Est Fold Change (2 HOUR): −13.65
- CD300LF Raw Est Fold Change (2 HOUR): 5.42
- CEBPD Raw Est Fold Change (2 HOUR): −1.29
- CSNK1D Raw Est Fold Change (2 HOUR): 1.10
- DDIT4 Raw Est Fold Change (2 HOUR): 2.67
- DRAP1 Raw Est Fold Change (2 HOUR): 1.17
- EFNB2 Raw Est Fold Change (2 HOUR): −1.63
- EHHADH Raw Est Fold Change (2 HOUR): −1.16
- EPAS1 Raw Est Fold Change (2 HOUR): −2.61
- ETV7 Raw Est Fold Change (2 HOUR): −2.54
- FGF2 Raw Est Fold Change (2 HOUR): −1.76
- GOLGA3 Raw Est Fold Change (2 HOUR): 1.45
- GTPBP2 Raw Est Fold Change (2 HOUR): −1.29
- HLA-C Raw Est Fold Change (2 HOUR): −4.87
- ISGF3G Raw Est Fold Change (2 HOUR): −1.17
- JAK1 Raw Est Fold Change (2 HOUR): −5.55
- JUNB Raw Est Fold Change (2 HOUR): −6.01
- KAL1 Raw Est Fold Change (2 HOUR): −2.61
- KPNB1 Raw Est Fold Change (2 HOUR): 1.14
- MAX Raw Est Fold Change (2 HOUR): 3.74
- MPO Raw Est Fold Change (2 HOUR): −3.18
- PCMT1 Raw Est Fold Change (2 HOUR): −1.10
- PHF11 Raw Est Fold Change (2 HOUR): −1.80
- PHF15 Raw Est Fold Change (2 HOUR): 1.74
- PI4K2B Raw Est Fold Change (2 HOUR): −1.08
- PIM3 Raw Est Fold Change (2 HOUR): −1.19
- PXK Raw Est Fold Change (2 HOUR): 1.17
- RHOH Raw Est Fold Change (2 HOUR): −14.71
- SCARB2 Raw Est Fold Change (2 HOUR): 1.50
- SOCS1 Raw Est Fold Change (2 HOUR): −4.13
- SOCS3 Raw Est Fold Change (2 HOUR): −9.95
- TXNIP Raw Est Fold Change (2 HOUR): −2.04
- ABHD5 Raw Est Fold Change (24 HOUR): −1.43
- ADM Raw Est Fold Change (24 HOUR): −1.81
- AKAP12 Raw Est Fold Change (24 HOUR): 3.33
- ALCAM Raw Est Fold Change (24 HOUR): −1.24
- AMPH Raw Est Fold Change (24 HOUR): −3.29
- ARHGDIB Raw Est Fold Change (24 HOUR): −1.72
- ARHGEF3 Raw Est Fold Change (24 HOUR): −1.32
- ATF3 Raw Est Fold Change (24 HOUR): −3.06
- AXL Raw Est Fold Change (24 HOUR): −6.82
- B4GALT5 Raw Est Fold Change (24 HOUR): −1.87
- BAG1 Raw Est Fold Change (24 HOUR): 1.26
- BCL3 Raw Est Fold Change (24 HOUR): −3.11
- BHMT Raw Est Fold Change (24 HOUR): 5.84
- BLZF1 Raw Est Fold Change (24 HOUR): −1.26
- BST2 Raw Est Fold Change (24 HOUR): −1.70
- BTG1 Raw Est Fold Change (24 HOUR): −1.16
- BUB1 Raw Est Fold Change (24 HOUR): −33.18
- C1S Raw Est Fold Change (24 HOUR): −1.62
- C4orf32 Raw Est Fold Change (24 HOUR): −7.20
- C4orf33 Raw Est Fold Change (24 HOUR): 3.95
- C10orf10 Raw Est Fold Change (24 HOUR): −2.71
- CASP4 Raw Est Fold Change (24 HOUR): −5.09
- CASP5 Raw Est Fold Change (24 HOUR): −3.00
- CCND3 Raw Est Fold Change (24 HOUR): −1.81
- CD38 Raw Est Fold Change (24 HOUR): −10.02
- CD47 Raw Est Fold Change (24 HOUR): −1.52
- CEBPD Raw Est Fold Change (24 HOUR): −2.58
- CHD6 Raw Est Fold Change (24 HOUR): 1.16
- CHST12 Raw Est Fold Change (24 HOUR): −1.21
- CLCN6 Raw Est Fold Change (24 HOUR): −1.26
- CREB3L3 Raw Est Fold Change (24 HOUR): −3.22
- CRYM Raw Est Fold Change (24 HOUR): 2.03
- CSDA Raw Est Fold Change (24 HOUR): −2.38
- CTSL Raw Est Fold Change (24 HOUR): −1.28
- CX3CL1 Raw Est Fold Change (24 HOUR): 2.73
- CXCL10 Raw Est Fold Change (24 HOUR): 1.71
- CYBA Raw Est Fold Change (24 HOUR): −1.64
- CYP1B1 Raw Est Fold Change (24 HOUR): −2.71
- DDX17 Raw Est Fold Change (24 HOUR): −1.56
- DNAPTP6 Raw Est Fold Change (24 HOUR): 1.34
- DRAP1 Raw Est Fold Change (24 HOUR): 1.29
- EFNB2 Raw Est Fold Change (24 HOUR): −1.46
- EGR1 Raw Est Fold Change (24 HOUR): −2.86
- EHHADH Raw Est Fold Change (24 HOUR): 1.80
- EMP1 Raw Est Fold Change (24 HOUR): −5.94
- EPAS1 Raw Est Fold Change (24 HOUR): −2.84
- ETS2 Raw Est Fold Change (24 HOUR): −1.73
- ETV6 Raw Est Fold Change (24 HOUR): −1.37
- ETV7 Raw Est Fold Change (24 HOUR): −3.88
- FAM125B Raw Est Fold Change (24 HOUR): −1.54
- FBXO6 Raw Est Fold Change (24 HOUR): 3.00
- FFAR2 Raw Est Fold Change (24 HOUR): −7.50
- FKBP1B Raw Est Fold Change (24 HOUR): −1.90
- FKBP5 Raw Est Fold Change (24 HOUR): −1.39
- FLT1 Raw Est Fold Change (24 HOUR): −1.75
- FNDC3B Raw Est Fold Change (24 HOUR): −1.67
- FNDC4 Raw Est Fold Change (24 HOUR): −1.59
- FUBP1 Raw Est Fold Change (24 HOUR): −1.50
- FUT4 Raw Est Fold Change (24 HOUR): −1.89
- G6PC Raw Est Fold Change (24 HOUR): 4.22
- GALNT2 Raw Est Fold Change (24 HOUR): −5.18
- GBP2 Raw Est Fold Change (24 HOUR): −1.83
- GBP4 Raw Est Fold Change (24 HOUR): −3.07
- GCH1 Raw Est Fold Change (24 HOUR): 1.17
- GK Raw Est Fold Change (24 HOUR): −2.50
- GLUL Raw Est Fold Change (24 HOUR): 1.13
- GNAI1 Raw Est Fold Change (24 HOUR): 1.43
- GOLGA3 Raw Est Fold Change (24 HOUR): −1.24
- GTF2F1 Raw Est Fold Change (24 HOUR): 1.28
- GTPBP1 Raw Est Fold Change (24 HOUR): −1.24
- HEG1 Raw Est Fold Change (24 HOUR): −3.64
- HIF1A Raw Est Fold Change (24 HOUR): −1.47
- HK2 Raw Est Fold Change (24 HOUR): −1.88
- HLA-DPA1 Raw Est Fold Change (24 HOUR): −2.10
- HLA-DPB1 Raw Est Fold Change (24 HOUR): −2.11
- ICAM1 Raw Est Fold Change (24 HOUR): −6.60
- IER3 Raw Est Fold Change (24 HOUR): −2.60
- IFI16 Raw Est Fold Change (24 HOUR): −6.86
- IFI27 Raw Est Fold Change (24 HOUR): −1.56
- IFIT1 Raw Est Fold Change (24 HOUR): 3.58
- IFIT3 Raw Est Fold Change (24 HOUR): 1.88
- IFITM1 Raw Est Fold Change (24 HOUR): −3.11
